{
  "source": "patent US9067896B2",
  "about": "“Crystalline forms of 3-(2,6-dichloro-3,5-dimethoxy-phenyl)-1-{6-[4-(4-ethyl-piperazin-1-yl) -phenylamino]-pyrimidin-4-yl}-1-methyl-urea and salts thereof” (Novartis AG, priority 2009, dated 2015)",
  "key": {"[1]": {"test": "Hygroscopicity from DVS sorption/desorption isotherms", "assay_type": "physicochemical", "conditions": "listed as anhydrous free base", "protocol": "Hygroscopicity was measured from sorption/desorption isotherms using Surface Measurement System DVS-1 at 25±0.5° C. Samples were evaluated at various humidities including 75%, 85%, and 95%.\nThe free base (anhydrous and monohydrate) and its phosphate salt (form A) were subjected to sorption and desorption cycle using a VTI brand instrument. The solids were collected after the experiment and analyzed. […] The DVS plots are shown in FIGS. 4A (free base, anhydrous), 4B (phosphate salt (form A) and 4C (free base, monohydrate). The maximum water uptake for the phosphate salt (form A) was less than 2% (i.e. 0.7%) at 25° C. up to 95% relative humidity (rh) (see Table 9). The maximum water uptake for the monohydrate was less than 1.4% at 25° C. up to 95% RH. The monohydrate with an approximate water content of 3% could not be completely dried during the experiment but the water that could be removed was reversibly reabsorbed. The plateau of existence of the monohydrate form is found to be within 10% and 95% RH with a slight hysteresis at the second desorption cycle."}, "Solution stability": {"test": "Solution stability", "assay_type": "physicochemical", "conditions": "1 week at 50° C.", "protocol": "The solution stability of the free base was tested in buffers ranging from pH 1 to pH 9 for 1 week at 50° C. At pH 5 and higher, the free base was stable, and after accounting for minor initial impurities, degradation was less than 2%. At pH 3, degradation was about 4% and at pH 1, degradation was about 15%. The stability was also tested in water and several organic solvents (1 week at 50° C.).\nWithout being bound by mechanism, the stability difference between the free base and phosphate salt may be due to the higher aqueous solubility of the phosphate salt compared to the free base, as well as the tendency of the phosphate salt to cause the pH of water to decrease, which may increase the rate of degradation."}, "Solid state stability": {"test": "Solid state stability", "assay_type": "physicochemical", "conditions": "one week at 80° C., sealed containers and 75% relative humidity, alone and with excipients as 1% mixture, listed as anhydrous free base", "protocol": "In the solid state, the samples were stressed for one week at 80° C., in sealed containers and under 75% relative humidity. […] The amount of degradation products of the anhydrous free base as assessed by HPLC was 1% or less (based on peak area), while the degradation of the phosphate salt accounted for 1.4% or less."}, "[2]": {"test": "Polymorphic stability by XRPD (equilibration, crystallization, evaporation, precipitation, compression, granulation)", "assay_type": "physicochemical", "conditions": "room temperature; water, ethanol, isopropanol, ethyl acetate, acetone", "protocol": "Slurries of samples were stirred at high speed for 24 hours at 25±0.5° C., filtered, and the solid collected analyzed by XRPD.\nAbout 20 mg of the phosphate salt (form A) was equilibrated with 2 ml of a variety of solvents for at least 24 h at room temperature. Then the solution was filtered and the residue dried overnight at 50° C. under house vacuum. The solid obtained was investigated by XRPD. […]\nAbout 20 mg of the phosphate salt (form A) was also equilibrated at about 50° C. with 2 ml solvent for at least 24 h. Then the solution was filtered and the residue dried overnight at 50° C. under house vacuum. The solid obtained was investigated by XRPD.\nAbout 20 mg of the phosphate salt (form A) was dissolved in 2 ml solvent at 60° C. The solution was filtered. The clear filtrate obtained was cooled in an ice bath and agitated. The precipitate was collected on a filter, dried and investigated by XRPD.\nAbout 20 mg of the phosphate salt (form A) was mixed with 2 ml solvent at 25° C. After stirring overnight, the solution was filtered. The filtrate was placed under nitrogen flow to evaporate the solvent. The residual solid was collected and investigated. The above evaporation was performed without stirring. Upon evaporation from THF/water (1:1) without stirring, a solid with XRPD pattern similar to that of the B form (see FIG. 1C), was obtained once. Subsequently, under these conditions, amorphous material, rather than form B, was obtained.\nThe same experiments (as described above for the 25° C. evaporation) were performed at 50° C.\nTwo different solvent combinations were tested. The phosphate salt (form A) was dissolved in DMSO where its solubility was high. A solvent (the anti-solvent) in which the form A was highly insoluble was added to the solution. The precipitate was collected on a filter, dried, and investigated by XRPD.\nThe phosphate salt (form A, 300 mg) was compressed for 5 minutes at 4000 pounds with a hydraulic press (diameter of the tablets 8 mm).\nA solvent (water or ethanol) was added drop wise to the phosphate salt (form A) placed in a mortar until the solid in the mortar was sufficiently wet, and ground using a pestle until a paste-like consistency was obtained. The paste was dried at around 40° C. and under reduced pressure for >8 hours."}, "[3]": {"test": "Pharmacokinetics / bioavailability in rats", "assay_type": "in vivo", "conditions": "rats; for half-life: read-out: t1/2 terminal elimination (converted); for Cmax: read-out: Cmax [μmol/L ± SE]", "protocol": "The higher water solubility of the phosphate salt compared to the free base (and other acid salts, as described above) led to the development of a solution formulation (or composition), which would not be feasible with the free base due to solubility restrictions. For this experiment, the phosphate salt was prepared as follows. In a glass vial, 10.7 mg of the free base was dissolved in 4 ml THF. Phosphoric acid (1.76 ml) in acetone (0.01M) was added. The mixture was warmed to 50° C. for about 2 minutes. The vial was left open for partial evaporation at room temperature. Overnight, a suspension was formed, which was filtered yielding about 5.5 mg of an off-white powder. The bioavailabilities, in rats, of the active agents (the free base and its phosphate salt), formulated variously, are tabulated below (Table 10)."}, "[4]": {"conditions": "rat, in vivo, iv, 5 mg/kg, i.v. [5 mg/kg]"}, "[5]": {"conditions": "rat, in vivo, po, 8.57 mg/kg, free base p.o., suspension (water containing 0.5% HPMC) [8.57 mg/kg]"}, "[6]": {"conditions": "rat, in vivo, po, 10 mg/kg, colloidal solution (water, ethanol and cremophor EL) [10 mg/kg]"}, "[7]": {"conditions": "rat, in vivo, po, 10 mg/kg, p.o., colloidal solution (water, ethanol and cremophor EL) [10 mg/kg]"}, "[8]": {"conditions": "free base p.o., suspension (water containing 0.5% HPMC) [8.57 mg/kg]"}, "[9]": {"conditions": "p.o., colloidal solution (water, ethanol and cremophor EL) [10 mg/kg]"}},
  "note": "Read-outs that look alike come from different tables or passages of the source.",
  "data": [
    {"smiles": "CCN1CCN(c2ccc(Nc3cc(N(C)C(=O)Nc4c(Cl)c(OC)cc(OC)c4Cl)ncn3)cc2)CC1", "note": "[Free Base, 3-(2,6-Dichloro-3,5-dimethoxy-phenyl)-1-{6-[4-(4-ethyl-piperazin-1-yl)-phenylamino]-pyrimidin-4-yl}-1-methyl-urea]", "values": [
      {"measurement": "hygroscopicity (in words)", "setting": "[1]", "value": "slightly hygroscopic"},
      {"measurement": "degradation in solution", "setting": "Solution stability; 1:1 acetonitrile/water, listed as free base", "value": "about 8%"},
      {"measurement": "degradation in solution", "setting": "Solution stability; buffer pH 1", "value": "about 15%"},
      {"measurement": "degradation in solution", "setting": "Solution stability; buffer pH 3", "value": "about 4%"},
      {"measurement": "degradation in solution", "setting": "Solution stability; buffers pH 5 and higher", "value": "less than 2%"},
      {"measurement": "degradation in solution", "setting": "Solution stability; isopropanol", "value": "stable"},
      {"measurement": "degradation in solution", "setting": "Solution stability; water, listed as free base", "value": "stable"},
      {"measurement": "amount of degradation products by HPLC (peak area)", "setting": "Solid state stability", "value": "≤ 1", "unit": "%"},
      {"measurement": "XRPD after equilibration with solvents", "setting": "[2]", "value": "No new XRPD pattern was observed"},
      {"measurement": "AUC(0-inf)", "setting": "[3]; [4]", "value": 2.47, "unit": "µM·h"},
      {"measurement": "concentration at 5 min", "setting": "[3]; rat, in vivo, iv, 5 mg/kg, i.v. [5 mg/kg], read-out: C5 min [μmol/L ± SE]", "value": "0.972 ± 0.404", "unit": "µmol/L"},
      {"measurement": "concentration at 24 h", "setting": "[3]; rat, in vivo, iv, 5 mg/kg, i.v. [5 mg/kg], read-out: Clast [μmol/L ± SE]", "value": "0.003 ± 0.003", "unit": "µmol/L"},
      {"measurement": "half-life", "setting": "[3]; [4]", "value": 4.5, "unit": "h"},
      {"measurement": "clearance", "setting": "[3]; rat, in vivo, iv, i.v. [5 mg/kg]", "value": 60, "unit": "mL/min/kg"},
      {"measurement": "Vd", "setting": "[3]; rat, in vivo, iv, i.v. [5 mg/kg], read-out: Vss", "value": 9.6, "unit": "L/kg"},
      {"measurement": "AUC(0-inf)", "setting": "[3]; [5]", "value": 1.55, "unit": "µM·h"},
      {"measurement": "Tmax", "setting": "[3]; [5]", "value": 2, "unit": "h"},
      {"measurement": "concentration at 8 h", "setting": "[3]; rat, in vivo, po, 8.57 mg/kg, free base p.o., suspension (water containing 0.5% HPMC) [8.57 mg/kg], read-out: Clast [μmol/L ± SE]", "value": "0.077 ± 0.038", "unit": "µmol/L"},
      {"measurement": "Cmax", "setting": "[3]; [5]", "value": "0.202 ± 0.021", "unit": "µmol/L"},
      {"measurement": "half-life", "setting": "[3]; [5]", "value": 4.3, "unit": "h"},
      {"measurement": "AUC(0-inf)", "setting": "[3]; [6]", "value": 1.44, "unit": "µM·h"},
      {"measurement": "Tmax", "setting": "[3]; [6]", "value": 3, "unit": "h"},
      {"measurement": "concentration at 24 h", "setting": "[3]; rat, in vivo, po, 10 mg/kg, p.o., colloidal solution (water, ethanol and cremophor EL) [10 mg/kg], read-out: Clast [μmol/L ± SE]", "value": "0.01 ± 0.005", "unit": "µmol/L"},
      {"measurement": "Cmax", "setting": "[3]; [7]", "value": "0.154 ± 0.026", "unit": "µmol/L"},
      {"measurement": "half-life", "setting": "[3]; [7]", "value": 5.2, "unit": "h"},
      {"measurement": "AUC (0-∞) dose ^A [(h · μmol/L)/(mg/kg)]", "setting": "[3]; [8]", "value": "0.18 (h · μmol/L)/(mg/kg)"},
      {"measurement": "BAV f [%]", "setting": "[3]; [8]", "value": "37 ± 11", "unit": "%"},
      {"measurement": "tlast", "setting": "[3]; [8]", "value": 8, "unit": "h"},
      {"measurement": "AUC (0-∞) dose ^A [(h · μmol/L)/(mg/kg)]", "setting": "[3]; i.v. [5 mg/kg]", "value": "0.49 (h · μmol/L)/(mg/kg)"},
      {"measurement": "tlast", "setting": "[3]; i.v. [5 mg/kg]", "value": 24, "unit": "h"},
      {"measurement": "AUC (0-∞) dose ^A [(h · μmol/L)/(mg/kg)]", "setting": "[3]; [9]", "value": "0.14 (h · μmol/L)/(mg/kg)"},
      {"measurement": "BAV f [%]", "setting": "[3]; [9]", "value": 29, "unit": "%"},
      {"measurement": "tlast", "setting": "[3]; [9]", "value": 24, "unit": "h"}
    ]}
  ]
}
